Test results taken from PubChem BioAssay (NCI).
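Step 1: Grow cells in 96-well plates. Step 2: Expose to compound for 48 hours at 5 concentrations. Step 3: Interpolate endpoints linearly; if unreached, use highest concentration. GI50 marks 50% less growth. The concentration for full growth arrest is given as TGI.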

How the values were obtained:
Assay in all cases: inhibition of tumour cell growth, NCI panel, 48 h
786-0 renal = system: 786-0 renal
A498 renal = system: A498 renal
A549 NSCLC = system: A549 NSCLC
ACHN renal = system: ACHN renal
BT-549 breast = system: BT-549 breast
CAKI-1 renal = system: CAKI-1 renal
CCRF-CEM leukemia = system: CCRF-CEM leukemia
COLO 205 colon = system: COLO 205 colon
DU-145 prostate = system: DU-145 prostate
EKVX NSCLC = system: EKVX NSCLC
HCC-2998 colon = system: HCC-2998 colon
HCT-116 colon = system: HCT-116 colon
HCT-15 colon = system: HCT-15 colon
HL-60(TB) leukemia = system: HL-60(TB) leukemia
HOP-62 NSCLC = system: HOP-62 NSCLC
HOP-92 NSCLC = system: HOP-92 NSCLC
HS 578T breast = system: HS 578T breast
HT29 colon = system: HT29 colon
IGROV1 ovarian = system: IGROV1 ovarian
K-562 leukemia = system: K-562 leukemia
KM12 colon = system: KM12 colon
LOX IMVI melanoma = system: LOX IMVI melanoma
M14 melanoma = system: M14 melanoma
MALME-3M melanoma = system: MALME-3M melanoma
MCF7 breast = system: MCF7 breast
MDA-MB-231 breast = system: MDA-MB-231 breast
MDA-MB-435 = system: MDA-MB-435
MOLT-4 leukemia = system: MOLT-4 leukemia
NCI-H226 lung = system: NCI-H226 lung
NCI-H23 lung = system: NCI-H23 lung
NCI-H460 lung = system: NCI-H460 lung
NCI-H522 lung = system: NCI-H522 lung
NCI/ADR-RES ovarian = system: NCI/ADR-RES ovarian
OVCAR-3 ovarian = system: OVCAR-3 ovarian
OVCAR-4 ovarian = system: OVCAR-4 ovarian
OVCAR-5 ovarian = system: OVCAR-5 ovarian
OVCAR-8 ovarian = system: OVCAR-8 ovarian
PC-3 prostate = system: PC-3 prostate
RPMI-8226 leukemia = system: RPMI-8226 leukemia
RXF 393 renal = system: RXF 393 renal
SF-268 CNS = system: SF-268 CNS
SF-295 CNS = system: SF-295 CNS
SF-539 CNS = system: SF-539 CNS
SK-MEL-2 melanoma = system: SK-MEL-2 melanoma
SK-MEL-28 melanoma = system: SK-MEL-28 melanoma
SK-MEL-5 melanoma = system: SK-MEL-5 melanoma
SK-OV-3 ovarian = system: SK-OV-3 ovarian
SN12C renal = system: SN12C renal
SNB-19 CNS = system: SNB-19 CNS
SNB-75 CNS = system: SNB-75 CNS
SR leukemia = system: SR leukemia
SW-620 colon = system: SW-620 colon
T-47D breast = system: T-47D breast
TK-10 renal = system: TK-10 renal
U251 CNS = system: U251 CNS
UACC-257 melanoma = system: UACC-257 melanoma
UACC-62 melanoma = system: UACC-62 melanoma
UO-31 renal = system: UO-31 renal

Compound `CCCCON(OC(=O)c1ccc2ccc3cccc4ccc1c2c34)C(C)=O` has a GI50 (786-0 renal) of 19.6 µM, a TGI (786-0 renal) of 38.2 µM and a GI50 (A498 renal) of 27.7 µM. It also gave a TGI (A498 renal) of 85.8 µM, a GI50 (A549 NSCLC) of 39.1 µM and a TGI (A549 NSCLC) of over 100 µM. It also gave a GI50 (ACHN renal) of 21.7 µM, a TGI (ACHN renal) of 51.6 µM and a GI50 (BT-549 breast) of 19.2 µM. It also gave a TGI (BT-549 breast) of 42.7 µM, a GI50 (CAKI-1 renal) of 14.4 µM and a TGI (CAKI-1 renal) of 32.6 µM. It also gave a GI50 (CCRF-CEM leukemia) of 16.3 µM, a TGI (CCRF-CEM leukemia) of 41.4 µM and a GI50 (COLO 205 colon) of 24.9 µM. The TGI (COLO 205 colon) was 98.9 µM, the GI50 (DU-145 prostate) was 31.1 µM and the TGI (DU-145 prostate) was over 100 µM. For the same compound, the GI50 (EKVX NSCLC) was 27.3 µM, the TGI (EKVX NSCLC) was over 100 µM and the GI50 (HCC-2998 colon) was 38.5 µM. For the same compound, the TGI (HCC-2998 colon) was over 100 µM, the GI50 (HCT-116 colon) was 22.4 µM and the TGI (HCT-116 colon) was 52.3 µM. The GI50 (HCT-15 colon) was 30.9 µM, the TGI (HCT-15 colon) was over 100 µM and the GI50 (HL-60(TB) leukemia) was 19.2 µM. For the same compound, the TGI (HL-60(TB) leukemia) was 44.2 µM, the GI50 (HOP-62 NSCLC) was 24 µM and the TGI (HOP-62 NSCLC) was 60.1 µM. The GI50 (HOP-92 NSCLC) was 16.3 µM, the TGI (HOP-92 NSCLC) was 44.3 µM and the GI50 (HS 578T breast) was 18.8 µM. The TGI (HS 578T breast) was 66.6 µM, the GI50 (HT29 colon) was 25 µM and the TGI (HT29 colon) was 74.9 µM. For the same compound, the GI50 (IGROV1 ovarian) was 16.5 µM, the TGI (IGROV1 ovarian) was 55.2 µM and the GI50 (K-562 leukemia) was 20.9 µM. The TGI (K-562 leukemia) was 50.2 µM, the GI50 (KM12 colon) was 28.8 µM and the TGI (KM12 colon) was over 100 µM. It also gave a GI50 (LOX IMVI melanoma) of 16.9 µM, a TGI (LOX IMVI melanoma) of 33.1 µM and a GI50 (M14 melanoma) of 22.7 µM. For the same compound, the TGI (M14 melanoma) was 55.3 µM, the GI50 (MALME-3M melanoma) was 18.3 µM and the TGI (MALME-3M melanoma) was 37.5 µM. For the same compound, the GI50 (MCF7 breast) was 26.3 µM, the TGI (MCF7 breast) was 68.9 µM and the GI50 (MDA-MB-231 breast) was 18.9 µM. The TGI (MDA-MB-231 breast) was 40.2 µM, the GI50 (MDA-MB-435) was 22.3 µM and the TGI (MDA-MB-435) was 50.4 µM. It also gave a GI50 (MOLT-4 leukemia) of 17.4 µM, a TGI (MOLT-4 leukemia) of 37.2 µM and a GI50 (NCI-H226 lung) of 21 µM. The TGI (NCI-H226 lung) was 53.3 µM, the GI50 (NCI-H23 lung) was 17 µM and the TGI (NCI-H23 lung) was 35.5 µM. For the same compound, the GI50 (NCI-H460 lung) was 32.1 µM, the TGI (NCI-H460 lung) was over 100 µM and the GI50 (NCI-H522 lung) was 19.4 µM. The TGI (NCI-H522 lung) was 45.7 µM, the GI50 (NCI/ADR-RES ovarian) was 21.9 µM and the TGI (NCI/ADR-RES ovarian) was 60.7 µM. It also gave a GI50 (OVCAR-3 ovarian) of 31.8 µM, a TGI (OVCAR-3 ovarian) of 82.7 µM and a GI50 (OVCAR-4 ovarian) of 23.5 µM. It also gave a TGI (OVCAR-4 ovarian) of 59.9 µM, a GI50 (OVCAR-5 ovarian) of 23.2 µM and a TGI (OVCAR-5 ovarian) of 92 µM. It also gave a GI50 (OVCAR-8 ovarian) of 28.9 µM, a TGI (OVCAR-8 ovarian) of over 100 µM and a GI50 (PC-3 prostate) of 22.2 µM. For the same compound, the TGI (PC-3 prostate) was 56.7 µM, the GI50 (RPMI-8226 leukemia) was 25.5 µM and the TGI (RPMI-8226 leukemia) was 80.4 µM. The GI50 (RXF 393 renal) was 19.7 µM, the TGI (RXF 393 renal) was 50.2 µM and the GI50 (SF-268 CNS) was 19.5 µM. The TGI (SF-268 CNS) was 40.5 µM, the GI50 (SF-295 CNS) was 30.3 µM and the TGI (SF-295 CNS) was over 100 µM. For the same compound, the GI50 (SF-539 CNS) was 18.5 µM, the TGI (SF-539 CNS) was 35.6 µM and the GI50 (SK-MEL-2 melanoma) was 23.9 µM. It also gave a TGI (SK-MEL-2 melanoma) of 68.9 µM, a GI50 (SK-MEL-28 melanoma) of 27.1 µM and a TGI (SK-MEL-28 melanoma) of 81.7 µM. It also gave a GI50 (SK-MEL-5 melanoma) of 16.9 µM, a TGI (SK-MEL-5 melanoma) of 32.5 µM and a GI50 (SK-OV-3 ovarian) of 40.1 µM. The TGI (SK-OV-3 ovarian) was over 100 µM, the GI50 (SN12C renal) was 19.6 µM and the TGI (SN12C renal) was 39.2 µM. The GI50 (SNB-19 CNS) was 34.3 µM, the TGI (SNB-19 CNS) was over 100 µM and the GI50 (SNB-75 CNS) was 19.9 µM. It also gave a TGI (SNB-75 CNS) of 41.7 µM, a GI50 (SR leukemia) of 13.2 µM and a TGI (SR leukemia) of 35.1 µM. It also gave a GI50 (SW-620 colon) of 18.5 µM, a TGI (SW-620 colon) of 39.1 µM and a GI50 (T-47D breast) of 29.7 µM. For the same compound, the TGI (T-47D breast) was over 100 µM, the GI50 (TK-10 renal) was 30.5 µM and the TGI (TK-10 renal) was 87.9 µM. It also gave a GI50 (U251 CNS) of 18.1 µM, a TGI (U251 CNS) of 36.5 µM and a GI50 (UACC-257 melanoma) of 60.3 µM. It also gave a TGI (UACC-257 melanoma) of over 100 µM, a GI50 (UACC-62 melanoma) of 21.5 µM and a TGI (UACC-62 melanoma) of 47.2 µM. The GI50 (UO-31 renal) was 19.5 µM and the TGI (UO-31 renal) was 42.4 µM.
